The text below walks through data of US20060257987A1, “Ppar modulators” (priority 2003, published 2006).

One may read the EC50 as the concentration giving half of the maximal effect. Read a low EC50 as higher potency in that assay.

One experiment addresses T1, huPPARγ (Homo sapiens, UniProt P37231).
T1 construct: expressed in transfected cells; host or cells: CV-1 cells
T1 sequence (P37231 1-505): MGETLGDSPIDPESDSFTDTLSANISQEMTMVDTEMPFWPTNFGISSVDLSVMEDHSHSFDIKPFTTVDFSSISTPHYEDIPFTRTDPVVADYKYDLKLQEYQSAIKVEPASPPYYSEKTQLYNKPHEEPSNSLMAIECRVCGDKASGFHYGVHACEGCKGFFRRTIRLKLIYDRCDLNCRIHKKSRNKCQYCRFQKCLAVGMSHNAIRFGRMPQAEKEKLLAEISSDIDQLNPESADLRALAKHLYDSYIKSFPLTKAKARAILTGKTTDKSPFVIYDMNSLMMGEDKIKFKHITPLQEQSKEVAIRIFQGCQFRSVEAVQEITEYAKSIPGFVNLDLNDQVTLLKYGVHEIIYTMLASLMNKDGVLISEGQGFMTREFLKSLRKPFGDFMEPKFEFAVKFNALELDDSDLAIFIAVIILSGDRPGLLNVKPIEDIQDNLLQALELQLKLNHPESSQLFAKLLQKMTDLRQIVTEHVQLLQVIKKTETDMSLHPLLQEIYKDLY
T1 sequence (P19793 1-462 partner): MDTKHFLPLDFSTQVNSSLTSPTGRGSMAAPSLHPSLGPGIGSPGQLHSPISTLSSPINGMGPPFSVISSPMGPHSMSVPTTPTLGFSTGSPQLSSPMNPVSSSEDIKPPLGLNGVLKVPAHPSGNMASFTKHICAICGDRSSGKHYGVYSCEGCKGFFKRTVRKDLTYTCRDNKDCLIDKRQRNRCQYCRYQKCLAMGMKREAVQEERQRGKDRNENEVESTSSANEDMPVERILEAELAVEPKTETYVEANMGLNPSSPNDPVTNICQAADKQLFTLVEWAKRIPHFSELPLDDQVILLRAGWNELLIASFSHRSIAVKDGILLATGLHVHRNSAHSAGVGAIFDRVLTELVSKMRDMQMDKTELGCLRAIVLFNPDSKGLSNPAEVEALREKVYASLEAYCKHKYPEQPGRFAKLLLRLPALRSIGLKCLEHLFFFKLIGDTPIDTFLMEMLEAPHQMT
Kind of experiment: Cotransfection assay in CV-1 cells, AOX PPRE luciferase reporter. The format is cell-based. Background: Reporter assays use an easily measured gene product as a stand-in for the process of interest.

For another experiment, the target named is T2, huPPARα (Homo sapiens, UniProt Q07869).
T2 sequence (Q07869 200-468 limits assumed): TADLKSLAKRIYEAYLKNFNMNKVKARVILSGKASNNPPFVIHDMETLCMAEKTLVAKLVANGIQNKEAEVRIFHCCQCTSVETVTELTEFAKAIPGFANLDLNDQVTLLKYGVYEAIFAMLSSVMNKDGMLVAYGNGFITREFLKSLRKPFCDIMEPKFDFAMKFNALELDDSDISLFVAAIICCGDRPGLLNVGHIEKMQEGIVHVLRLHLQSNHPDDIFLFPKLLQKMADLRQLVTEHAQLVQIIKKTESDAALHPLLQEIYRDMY
Kind of experiment: Cotransfection assay in CV-1 cells, GAL4 chimeric system, luciferase reporter.

Another experiment concerns the target T3, huPPARδ (Homo sapiens, UniProt Q03181).
T3 sequence (Q03181 211-441 limits assumed): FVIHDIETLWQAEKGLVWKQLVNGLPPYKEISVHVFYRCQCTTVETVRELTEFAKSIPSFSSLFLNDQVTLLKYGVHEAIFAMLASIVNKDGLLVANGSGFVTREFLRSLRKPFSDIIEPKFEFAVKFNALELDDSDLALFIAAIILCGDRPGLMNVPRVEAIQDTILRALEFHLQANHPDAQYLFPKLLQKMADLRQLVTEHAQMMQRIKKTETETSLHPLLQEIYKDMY
The experiment is described as above.

A further experiment deals with hu apoAI transgenic mice. Description: Evaluation of triglyceride and cholesterol level in HuapoAI transgenic mice. It counts as in vivo. The settings on record: 100 mg/kg oral gavage daily for 7 days.

Procedure for huPPARα: (§1) Cotransfection assays are carried out in CV-1 cells. The reporter plasmid contains an acylCoA oxidase (AOX) PPRE and TK promoter upstream of the luciferase reporter cDNA. Appropriate PPARs and RXRα are constitutively expressed using plasmids containing the CMV promoter. Since for PPARα and PPARβ, interference by endogenous PPARγ in CV-1 cells is an issue, in order to eliminate such interference, a GAL4 chimeric system is used in which the DNA binding domain of the transfected PPAR is replaced by that of GAL4, and the GAL4 response element is utilized in place of the AOX PPRE. Receptor activation by compounds of the present invention is determined relative to PPARα agonist and PPARγ agonist reference molecules to obtain percent efficacies. EC50 values are determined by computer fit to a concentration-response curve. […] In some cases, a single high concentration of agonist (10 μM) was used.
Procedure for huPPARγ: as §1
Procedure for huPPARδ: as §1

On to `CCc1ccc(OC(C)CCSc2ccc(OCC(=O)O)c(C)c2)c(C(=O)c2ccccc2)c1` (centres unmarked) [S/O], for which the Emax stood at 63% at huPPARγ (CV-1, Table 4, percent efficacy relative to reference agonist, read-out: Eff % γ); 39% at huPPARα (CV-1, read-out: Eff % α); 112% on huPPARδ (CV-1, read-out: Eff % δ). In addition, the EC50 on huPPARγ (Table 4, effect of X/Y, scaffold drawing 255) came to 262 nM; at huPPARα it was 2890 nM; at huPPARδ it was 23 nM.
With `CC(C)OC(=O)C(C)(C)Oc1ccc(C(=O)c2ccc(Cl)cc2)cc1` [fenofibrate], the “high-density lipoprotein cholesterol (HDLc) peak area” value in the experiment on hu apoAI transgenic mice (FPLC of pooled sera, vehicle 47 to 62 v-sec) is 68-96 v-sec. Also, the “mean percent increase of HDLc” value in the experiment on hu apoAI transgenic mice (FPLC of pooled sera, versus vehicle) came to 48%. In the experiment with hu apoAI transgenic mice (serum, vehicle about 60 to 80 mg/dl), the average triglycerides values was in the range of 33 to 58 mg/dL. Moreover, in the experiment on hu apoAI transgenic mice (versus vehicle), the “mean elevation of total serum cholesterol” value is on record as 41% and the “mean reduction of triglycerides” value came out at 37%.
